The EC50 is the concentration that produces a half-maximal response.

Like-named read-outs stand apart in the source and are kept apart here. Starred links: 1 amine or outer side, 2 acyl side, 3 side chain; linkers in the order of their positions; H or OH if unused. Non-standard residues stand in square brackets, D forms with d. Residues, ends and D or L forms follow the SMILES beside them. *: point of attachment. NH(1S,2S-2-CONH2-cPent) = NC(=O)[C@H]1CCC[C@@H]1N*; X12 = O=C([C@H]1CCC[C@@H]1N[*:1])[*:2]; X13 = O=C([C@H]1CNC[C@@H]1N[*:1])[*:2]; ACPC(1S,2S) = N[C@H]1CCC[C@@H]1C(=O)*; Aib = CC(C)(N)C(=O)O

Test [1] has as its target T1, WT human PTHR-1 (Homo sapiens, UniProt Q03431).
T1 construct: bioactivity of the resulting compound in full-length hPTHR-1 and a truncated version; expressed in transfected cells
T1 sequence (Q03431 27-593): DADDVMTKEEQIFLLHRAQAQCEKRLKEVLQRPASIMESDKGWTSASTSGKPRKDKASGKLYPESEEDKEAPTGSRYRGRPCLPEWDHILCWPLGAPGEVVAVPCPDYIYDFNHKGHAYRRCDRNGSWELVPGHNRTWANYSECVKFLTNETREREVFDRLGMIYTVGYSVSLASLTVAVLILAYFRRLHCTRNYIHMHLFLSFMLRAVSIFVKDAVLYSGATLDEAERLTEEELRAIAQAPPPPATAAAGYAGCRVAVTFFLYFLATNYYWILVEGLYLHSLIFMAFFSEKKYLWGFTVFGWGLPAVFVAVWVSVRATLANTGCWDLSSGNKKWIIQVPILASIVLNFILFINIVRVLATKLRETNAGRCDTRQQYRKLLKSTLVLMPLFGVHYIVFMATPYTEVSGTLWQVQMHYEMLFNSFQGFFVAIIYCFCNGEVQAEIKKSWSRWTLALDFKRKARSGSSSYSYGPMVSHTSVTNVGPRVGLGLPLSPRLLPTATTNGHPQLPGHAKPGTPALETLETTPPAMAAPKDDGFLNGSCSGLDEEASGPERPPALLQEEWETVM
Nature of the test: cAMP GloSensor dose-response in GP-2.3 cells expressing human PTHR-1. Type of test: cell-based. As to conditions: for cAMP (hPTHR-1) Max: Table 1, luminescence counts per second relative to PTH(1-34); for cAMP (hPTHR-1) Max / Max: 12-16 minutes after ligand addition; for Max: Table 6, GP-2.3 cells, mean ± SEM. As for the experimental part:
FIGS. 8A, 8B, and 8C constitute a series of graphs depicting cAMP responses in GP-2.3 cells expressing wild-type human parathyroid hormone receptor 1 (PTHR-1-WT). […] Data are means (±SEM) of n>4 experiments, each performed in duplicate.
(§1) For cAMP dose-response assays, monolayers of confluent HEK 293 cells were pre-incubated with buffer containing d-luciferin (0.5 mM) in 96 well plates at room temperature until a stable baseline level of luminescence was established (30 min). Varying concentrations of agonist were then added, and the time course of luminescence response was recorded using a Perkin Elmer plate reader following α/β-peptide addition.

In test [2] the target is T2, WT rat PTHR-1 (Rattus norvegicus, UniProt P25961).
T2 construct: expressed in transfected cells
T2 sequence (P25961 27-591): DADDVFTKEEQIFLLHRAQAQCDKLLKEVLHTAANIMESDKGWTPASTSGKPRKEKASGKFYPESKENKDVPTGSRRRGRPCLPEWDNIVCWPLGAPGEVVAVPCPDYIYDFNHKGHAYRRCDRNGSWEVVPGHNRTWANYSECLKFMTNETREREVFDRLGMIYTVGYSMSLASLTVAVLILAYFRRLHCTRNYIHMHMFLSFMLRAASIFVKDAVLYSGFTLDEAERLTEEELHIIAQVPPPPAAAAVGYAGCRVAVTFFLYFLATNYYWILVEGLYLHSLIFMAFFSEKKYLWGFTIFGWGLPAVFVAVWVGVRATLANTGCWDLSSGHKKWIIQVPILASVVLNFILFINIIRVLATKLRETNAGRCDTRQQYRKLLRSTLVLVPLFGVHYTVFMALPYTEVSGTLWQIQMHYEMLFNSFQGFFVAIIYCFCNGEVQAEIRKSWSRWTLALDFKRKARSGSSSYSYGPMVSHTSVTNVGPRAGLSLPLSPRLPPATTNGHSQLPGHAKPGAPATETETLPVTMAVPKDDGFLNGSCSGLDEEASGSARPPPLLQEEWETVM
In words: cAMP GloSensor dose-response in GR-35 cells expressing rat PTHR-1. Type of test: cell-based. Conditions: Table 7; GR-35 cells, 12-16 minutes after ligand addition; mean ± SEM. The method, then: FIGS. 9A, 9B, and 9C constitute a series of graphs depicting cAMP responses in GR-35 cells expressing rat PTHR-1-WT. […] Data are means (±SEM) of n>4 experiments, each performed in duplicate.
as §1

For `CC[C@H](C)[C@H](NC(=O)[C@H](CO)NC(=O)[C@H](CCCCN)NC(=O)CNC(=O)[C@H](CCCCN)NC(=O)[C@H](CC(=O)O)NC(=O)[C@H](Cc1c[nH]cn1)NC(=O)[C@H](CC(C)C)NC(=O)[C@H]1CCC[C@@H]1NC(=O)[C@H](CCC(N)=O)NC(=O)[C@H]1CCC[C@@H]1NC(=O)[C@H](CCC(=O)O)NC(=O)[C@H](CO)NC(=O)[C@@H](NC(=O)[C@H]1CCC[C@@H]1N)C(C)C)C(=O)N[C@@H](CCC(N)=O)C(=O)N[C@@H](CC(=O)O)C(=O)N[C@@H](CC(C)C)C(=O)N[C@@H](CCCNC(=N)N)C(=O)N[C@@H](CCCNC(=N)N)C(=O)N[C@@H](CCCNC(=N)N)C(=O)N[C@@H](CCC(=O)O)C(=O)N[C@@H](CC(C)C)C(=O)N[C@@H](CC(C)C)C(=O)N[C@@H](CCC(=O)O)C(=O)N[C@@H](CCCCN)C(=O)N[C@@H](CC(C)C)C(=O)N[C@@H](CC(C)C)C(=O)NC(C)(C)C(=O)N[C@@H](CCCCN)C(=O)N[C@@H](CC(C)C)C(=O)N[C@@H](Cc1c[nH]cn1)C(=O)N[C@H](C(=O)N[C@@H](C)C(N)=O)[C@@H](C)O` [BA058 ACPC(1,5,7), XVSEXQXLHDKGKSIQDLRRRELLEKLLUKLHTA-NH2] ({ACPC(1S,2S)}-VSE[X12]Q[X12]LHDKGKSIQDLRRRELLEKLL[Aib]KLHTA-NH2; N-terminus assumed), in test [1] (read-out: cAMP EC50), the concentration for a half-maximal effect (EC50) was 0.26 nM.

For the compound `CC[C@H](C)[C@H](NC(=O)[C@H]1CCC[C@@H]1NC(=O)[C@H](CCCCN)NC(=O)CNC(=O)[C@H](CCCCN)NC(=O)[C@H](CC(=O)O)NC(=O)[C@H](Cc1cnc[nH]1)NC(=O)[C@H](CC(C)C)NC(=O)[C@H]1CCC[C@@H]1NC(=O)[C@H](CCC(N)=O)NC(=O)[C@H]1CCC[C@@H]1NC(=O)[C@H](CCC(=O)O)NC(=O)[C@H](CO)NC(=O)[C@@H](NC(=O)[C@H]1CCC[C@@H]1N)C(C)C)C(=O)N[C@@H](CCC(N)=O)C(=O)N[C@@H](CC(=O)O)C(=O)N[C@H]1CCC[C@@H]1C(=O)N[C@@H](CCCNC(=N)N)C(=O)N[C@@H](CCCNC(=N)N)C(=O)N[C@@H](CCCNC(=N)N)C(=O)N[C@H]1CNC[C@@H]1C(=O)N[C@@H](CC(C)C)C(=O)N[C@@H](CC(C)C)C(=O)N[C@@H](CCC(=O)O)C(=O)N[C@H]1CNC[C@@H]1C(=O)N[C@@H](CC(C)C)C(=O)N[C@@H](CC(C)C)C(=O)NC(C)(C)C(=O)N[C@H]1CCC[C@@H]1C(=O)N[C@@H](CC(C)C)C(=O)N[C@@H](Cc1cnc[nH]1)C(=O)N[C@H](C(=O)N[C@H]1CCC[C@@H]1C(N)=O)[C@@H](C)O` [CycD6 BA058 ACPC(1,5,7), XVSEXQXLHDKGKXIQDXRRRZLLEZLLUXLHTX-NH2] ({ACPC(1S,2S)}-VSE[X12]Q[X12]LHDKGK[X12]IQD[X12]RRR[X13]LLE[X13]LL[Aib][X12]LHT-{NH(1S,2S-2-CONH2-cPent)}), the concentration for a half-maximal effect (EC50) in test [1] (read-out: cAMP EC50) stood at 0.65 nM.

`CC[C@H](C)[C@H](NC(=O)[C@H](CCC(=O)O)NC(=O)[C@H](CO)NC(=O)[C@@H](NC(=O)[C@@H](N)CO)C(C)C)C(=O)N[C@@H](CCC(N)=O)C(=O)N[C@@H](CC(C)C)C(=O)N[C@@H](CCSC)C(=O)N[C@@H](Cc1c[nH]cn1)C(=O)N[C@@H](CC(N)=O)C(=O)N[C@@H](CC(C)C)C(=O)NCC(=O)N[C@@H](CCCCN)C(=O)N[C@@H](Cc1c[nH]cn1)C(=O)N[C@H](CC(=O)N[C@@H](CC(N)=O)C(=O)N[C@@H](CO)C(=O)N[C@@H](CCSC)C(=O)N[C@@H](CCC(=O)O)CC(=O)N[C@@H](CCCNC(=N)N)C(=O)N[C@H](C(=O)N[C@@H](CCC(=O)O)C(=O)N[C@H](CC(=O)N[C@@H](CC(C)C)C(=O)N[C@@H](CCCNC(=N)N)C(=O)N[C@@H](CCCCN)C(=O)N[C@@H](CCCCN)CC(=O)N[C@@H](CC(C)C)C(=O)N[C@@H](CCC(N)=O)C(=O)N[C@@H](CC(=O)O)C(=O)N[C@H](CC(=O)N[C@@H](Cc1c[nH]cn1)C(=O)N[C@@H](CC(N)=O)C(=O)N[C@@H](Cc1ccccc1)C(N)=O)C(C)C)Cc1c[nH]c2ccccc12)C(C)C)CC(C)C` [A5]: in test [1], it took 1.66 nM to reach a half-maximal effect (EC50), the “cAMP (hPTHR-1) Max” value is listed as 1.12 and the Max is listed as 244 ± 32 luminescence counts per second × 10^−3. Also, in test [2], the Max was 54 ± 26 luminescence counts per second × 10−3.

`CC[C@H](C)[C@H](NC(=O)[C@H]1CCC[C@@H]1NC(=O)[C@H](CO)NC(=O)[C@@H](NC(=O)[C@@H](N)CO)C(C)C)C(=O)N[C@@H](CCC(N)=O)C(=O)N[C@@H](CC(C)C)C(=O)N[C@@H](CCSC)C(=O)N[C@@H](Cc1c[nH]cn1)C(=O)N[C@@H](CC(N)=O)C(=O)N[C@@H](CC(C)C)C(=O)NCC(=O)N[C@@H](CCCCN)C(=O)N[C@@H](Cc1c[nH]cn1)C(=O)N[C@@H](CC(C)C)C(=O)N[C@@H](CC(N)=O)C(=O)N[C@@H](CO)C(=O)N[C@@H](CCSC)C(=O)N[C@@H](CCC(=O)O)C(=O)N[C@@H](CCCNC(=N)N)C(=O)N[C@H](C(=O)N[C@@H](CCC(=O)O)C(=O)N[C@@H](Cc1c[nH]c2ccccc12)C(=O)N[C@@H](CC(C)C)C(=O)N[C@@H](CCCNC(=N)N)C(=O)N[C@@H](CCCCN)C(=O)N[C@@H](CCCCN)C(=O)N[C@@H](CC(C)C)C(=O)N[C@@H](CCC(N)=O)C(=O)N[C@@H](CC(=O)O)C(=O)N[C@H](C(=O)N[C@@H](Cc1c[nH]cn1)C(=O)N[C@@H](CC(N)=O)C(=O)N[C@@H](Cc1ccccc1)C(N)=O)C(C)C)C(C)C` [ACPC(4)] (H-SVS[X12]IQLMHNLGKHLNSMERVEWLRKKLQDVHNF-NH2; N-terminus assumed): the “hPTHR1 EC50, nM (Means ± SEM)” value in test [1] (Table 8, cAMP-inducing potency, N-terminal modifications) was “No activity”.

Regarding `CC[C@H](C)[C@H](NC(=O)[C@H](CCC(=O)O)NC(=O)[C@H](CO)NC(=O)[C@@H](NC(=O)[C@@H](N)CO)C(C)C)C(=O)N[C@@H](CCC(N)=O)C(=O)N[C@@H](CC(C)C)C(=O)N[C@@H](CCSC)C(=O)N[C@@H](Cc1c[nH]cn1)C(=O)N[C@@H](CC(N)=O)C(=O)N[C@@H](CC(C)C)C(=O)NCC(=O)N[C@@H](CCCCN)C(=O)N[C@@H](Cc1c[nH]cn1)C(=O)N[C@@H](CC(C)C)C(=O)N[C@@H](CC(N)=O)C(=O)N[C@@H](CO)C(=O)N[C@@H](CCSC)C(=O)N[C@@H](CCC(=O)O)C(=O)N[C@@H](CCCNC(=N)N)C(=O)N[C@H](C(=O)N[C@@H](CCC(=O)O)C(=O)N[C@H](CC(=O)N[C@@H](CC(C)C)C(=O)N[C@@H](CCCNC(=N)N)C(=O)N[C@@H](CCCCN)C(=O)N[C@@H](CCCCN)CC(=O)N[C@@H](CC(C)C)C(=O)N[C@@H](CCC(N)=O)C(=O)N[C@@H](CC(=O)O)C(=O)N[C@H](CC(=O)N[C@@H](Cc1c[nH]cn1)C(=O)N[C@@H](CC(N)=O)C(=O)N[C@@H](Cc1ccccc1)C(N)=O)C(C)C)Cc1c[nH]c2ccccc12)C(C)C` [A3], in test [1], the “cAMP (hPTHR-1) Max” value was 1.07 and the Max is 232 ± 15 luminescence counts per second × 10^−3. Besides, the “agonist activity at hPTHR-1 (cAMP response), in words” value in test [1] (maximum cAMP response compared with PTH(1-34)) is reported as “full agonists of hPTHR-1”. Moreover, the Max in test [2] was 74 ± 101 luminescence counts per second × 10−3.

For the origin of these results see patent US10501518B2 (priority 2013, dated 2019).
